EC50 and IC50 data for 19 compounds are collected here from patent US11976072B2, “Diacylglycerol kinase modulating compounds” (priority 2021, dated 2024).

SMILES strings stand for the structures.

A word on the EC50: it is the concentration at which the effect is half-maximal. For orientation: IC50 means the midpoint of a concentration-inhibition curve.

Test [1] concerns Jurkat NFκB-luciferase cells. Nature of the test: Jurkat NFκB-Luciferase Assay. In kind it is cell-based. The conditions noted are these: Homo sapiens; Jurkat NFκB-luciferase cells activated with anti-CD3 antibody (OKT3), 2.5 hrs at 37° C.; geometric mean; read-out: DGK NFKb Luciferase EC50. As to the method:
The day after, the excess antibody was washed out five times with 100 ul/well of assay medium (RPMI supplemented with 10% fetal bovine serum) using a Biotek EL406 instrument and leaving 20 ul of residual volume in each well. Jurkat NFκB-luciferase cells (Promega #) were harvested and diluted to 1 million cells/ml in assay medium. […] Thirty microliters of medium containing the Jurkat NFκB-luciferase cells were then dispensed using a Biotek MicroFlo instrument in each well of the compound-containing plate. […] Forty microliters of One-Glo Ex (Promega) was then added to the assay mixture and luciferase activity was read on a Envision plate reader 7 minutes later.

The target in test [2] is human DGKα (Homo sapiens, UniProt P23743). Nature of the test: DGKα Biochemical Activity Assay (ADP-Glo).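 Note: luminescent detection of ADP produced as DGKα phosphorylates DAG to phosphatidic acid, IC50 from four-parameter nonlinear curve fit.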 The conditions noted are these: recombinant DGKα 1 nM, 100 μM ATP, 18:1 DAG/POPS/octylglucoside micelles, 1 hour at 25° C.; geometric mean; read-out: HTBS DGKa 1X ATP KM IC50.
Chain of human DGKα (P23743 whole entry): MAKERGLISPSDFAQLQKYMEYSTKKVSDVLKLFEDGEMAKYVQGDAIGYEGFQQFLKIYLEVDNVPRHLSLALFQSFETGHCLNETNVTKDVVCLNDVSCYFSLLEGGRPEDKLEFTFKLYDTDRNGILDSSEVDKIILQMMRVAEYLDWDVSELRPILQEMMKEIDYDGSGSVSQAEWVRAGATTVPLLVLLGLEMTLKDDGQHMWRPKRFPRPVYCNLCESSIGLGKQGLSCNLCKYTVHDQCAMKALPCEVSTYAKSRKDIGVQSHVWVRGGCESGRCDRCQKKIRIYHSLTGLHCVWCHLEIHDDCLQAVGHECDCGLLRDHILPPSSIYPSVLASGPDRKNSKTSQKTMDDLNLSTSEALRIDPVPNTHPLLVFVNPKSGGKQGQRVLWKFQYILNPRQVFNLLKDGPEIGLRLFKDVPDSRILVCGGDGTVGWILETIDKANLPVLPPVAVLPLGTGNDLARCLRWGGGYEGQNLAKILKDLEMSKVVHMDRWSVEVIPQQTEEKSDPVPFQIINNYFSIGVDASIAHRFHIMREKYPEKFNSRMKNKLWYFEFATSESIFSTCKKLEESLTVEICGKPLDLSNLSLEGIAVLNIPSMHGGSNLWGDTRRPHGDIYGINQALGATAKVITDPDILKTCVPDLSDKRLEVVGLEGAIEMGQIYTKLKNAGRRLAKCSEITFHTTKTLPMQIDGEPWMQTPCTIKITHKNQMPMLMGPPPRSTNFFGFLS

Turning to `Cc1nnc2nc(N(CC(F)F)c3cc(F)cc(C#CC4CCOCC4)c3)c3c(F)cccc3n12` [Example 20, N-(2,2-difluoroethyl)-6-fluoro-N-(3-fluoro-5-((tetrahydro-2H-pyran-4-yl)ethynyl)phenyl)-1-methyl-[1,2,4]triazolo[4,3-a]quinazolin-5-amine], in test [1], the EC50 was 10.3 nM. Also, the IC50 in test [2] was determined as 30.1 nM.
Consider `Cc1nnc2nc(N(CC(F)F)c3cc(F)cc(C#CC4(O)CCC4)c3)c3c(F)cccc3n12` [Example 21, 1-((3-((2,2-difluoroethyl)(6-fluoro-1-methyl-[1,2,4]triazolo[4,3-a]quinazolin-5-yl)amino)-5-fluorophenyl)ethynyl)cyclobutan-1-ol], for which, in test [1], the EC50 is 9.42 nM. Besides, the IC50 in test [2] was determined as 21 nM.
In the case of `Cc1nnc2nc(N(CC(F)F)c3cc(F)cc(C#CC4(C)COC4)c3)c3c(F)cccc3n12` [Example 22, N-(2,2-difluoroethyl)-6-fluoro-N-(3-fluoro-5-((3-methyloxetan-3-yl)ethynyl)phenyl)-1-methyl-[1,2,4]triazolo[4,3-a]quinazolin-5-amine], the concentration giving a half-maximal response (EC50) in test [1] amounted to 10.1 nM. In addition, the IC50 in test [2] stood at 18.9 nM.
As for `Cc1nnc2nc(N(CC(F)F)c3cc(F)cc(C#CC4COC4)c3)c3c(F)cccc3n12` [Example 23, N-(2,2-difluoroethyl)-6-fluoro-N-(3-fluoro-5-(oxetan-3-ylethynyl)phenyl)-1-methyl-[1,2,4]triazolo[4,3-a]quinazolin-5-amine], the EC50 in test [1] came to 3.46 nM. Further, in test [2], the concentration for half-maximal inhibition (IC50) is 33.9 nM.
With `Cc1nnc2nc(N(CC(F)F)c3cc(F)cc(C#CC4(C)COC4)c3)c3cc(F)ccc3n12` [Example 24, N-(2,2-difluoroethyl)-7-fluoro-N-(3-fluoro-5-((3-methyloxetan-3-yl)ethynyl)phenyl)-1-methyl-[1,2,4]triazolo[4,3-a]quinazolin-5-amine], the EC50 in test [1] is 4.7 nM. Also, the IC50 in test [2] came to 15.1 nM.
For `Cc1nnc2nc(N(CC(F)F)c3cc(F)cc(C#CC4(C(F)F)CC4)c3)c3c(F)cccc3n12` [Example 25, N-(2,2-difluoroethyl)-N-(3-((1-(difluoromethyl)cyclopropyl)ethynyl)-5-fluorophenyl)-6-fluoro-1-methyl-[1,2,4]triazolo[4,3-a]quinazolin-5-amine], in test [1], the EC50 amounted to 7.37 nM. Further, the IC50 in test [2] worked out at 30.2 nM.
For `Cc1nnc2nc(N3CCCc4c(C#CC5CCOCC5)cccc43)c3c(F)cccc3n12` [Example 26, 6-fluoro-1-methyl-5-(5-((tetrahydro-2H-pyran-4-yl)ethynyl)-3,4-dihydroquinolin-1(2H)-yl)-[1,2,4]triazolo[4,3-a]quinazoline] the same measures were 2.46 nM and 22.5 nM.
As to `Cc1nnc2nc(N3CCCc4c(C#CC5(C)COC5)cccc43)c3c(F)cccc3n12` [Example 27, 6-fluoro-1-methyl-5-(5-((3-methyloxetan-3-yl)ethynyl)-3,4-dihydroquinolin-1(2H)-yl)-[1,2,4]triazolo[4,3-a]quinazoline], the EC50 in test [1] is 3.52 nM. In addition, the IC50 in test [2] was 15.1 nM.
As for `Cc1nnc2nc(N3CCCc4c(C#CC5(O)CCC5)cccc43)c3cc(F)ccc3n12` [Example 28, 1-((1-(7-fluoro-1-methyl-[1,2,4]triazolo[4,3-a]quinazolin-5-yl)-1,2,3,4-tetrahydroquinolin-5-yl)ethynyl)cyclobutan-1-ol], in test [1], the EC50 was found to be 5.09 nM. Also, the IC50 in test [2] was 9.49 nM.
Turning to `Cc1nnc2nc(N3CCCc4c(C#CC5(C)COC5)cccc43)c3cc(F)ccc3n12` [Example 29, 7-fluoro-1-methyl-5-(5-((3-methyloxetan-3-yl)ethynyl)-3,4-dihydroquinolin-1(2H)-yl)-[1,2,4]triazolo[4,3-a]quinazoline], the 50% effective concentration (EC50) in test [1] turned out to be 0.66 nM. Also, the concentration for half-maximal inhibition (IC50) in test [2] stood at 3.31 nM.
In the same order, the values of `Cc1nnc2nc(N3CCCc4c(C#CC5CCC5)cccc43)c3cc(F)ccc3n12` [Example 30, 5-(5-(cyclobutylethynyl)-3,4-dihydroquinolin-1(2H)-yl)-7-fluoro-1-methyl-[1,2,4]triazolo[4,3-a]quinazoline] are 0.163 nM and 14.7 nM.
For `Cc1nnc2nc(N3CCCc4c(C#CC5(C(C)(F)F)CC5)cccc43)c3cc(F)ccc3n12` [Example 31, 5-(5-((1-(1,1-difluoroethyl)cyclopropyl)ethynyl)-3,4-dihydroquinolin-1(2H)-yl)-7-fluoro-1-methyl-[1,2,4]triazolo[4,3-a]quinazoline] the same measures were 1.43 nM and 50.9 nM.
As for `Cc1nnc2nc(N3CCCc4c(C#CC5CC(F)(F)C5)cccc43)c3cc(F)ccc3n12` [Example 32, 5-(5-((3,3-difluorocyclobutyl)ethynyl)-3,4-dihydroquinolin-1(2H)-yl)-7-fluoro-1-methyl-[1,2,4]triazolo[4,3-a]quinazoline], in test [1], the 50% effective concentration (EC50) amounted to 0.461 nM. In addition, the concentration for half-maximal inhibition (IC50) in test [2] came out at 11 nM.
As to `Cc1nnc2nc(N3CCCc4c(C#CC5(C)CC5)cccc43)c3c(Cl)c(F)ccc3n12` [Example 33, 6-chloro-7-fluoro-1-methyl-5-[5-[2-(1-methylcyclopropyl)ethynyl]-3,4-dihydro-2H-quinolin-1-yl]-[1,2,4]triazolo[4,3-a]quinazoline], in test [1], the half-maximal effective concentration (EC50) is 1.59 nM. Further, in test [2], the IC50 is 42.4 nM.
Take `Cc1nnc2nc(N3CCCc4c(C#CC(C)(C)C(F)F)cccc43)c3c(Cl)c(F)ccc3n12` [Example 34, 6-chloro-5-[5-(4,4-difluoro-3,3-dimethyl-but-1-ynyl)-3,4-dihydro-2H-quinolin-1-yl]-7-fluoro-1-methyl-[1,2,4]triazolo[4,3-a]quinazoline]: the 50% effective concentration (EC50) in test [1] was determined as 0.907 nM. Moreover, the IC50 in test [2] amounted to 30.4 nM.
For `Cc1nnc2nc(N3CCCc4c(C#CC5(C(F)F)CC5)cccc43)c3c(Cl)c(F)ccc3n12` [Example 35, 6-chloro-5-[5-[2-[1-(difluoromethyl)cyclopropyl]ethynyl]-3,4-dihydro-2H-quinolin-1-yl]-7-fluoro-1-methyl-[1,2,4]triazolo[4,3-a]quinazoline], the concentration for a half-maximal effect (EC50) in test [1] worked out at 1.14 nM. Besides, in test [2], the IC50 worked out at 5.44 nM.
In the same order, the values of `Cc1nnc2nc(N3CCCc4c(C#CC(C)(C)C#N)cccc43)c3c(Cl)c(F)ccc3n12` [Example 36, 4-[1-(6-chloro-7-fluoro-1-methyl-[1,2,4]triazolo[4,3-a]quinazolin-5-yl)-3,4-dihydro-2H-quinolin-5-yl]-2,2-dimethyl-but-3-ynenitrile] are 1.85 nM and 9.93 nM.
Turning to `Cc1nnc2nc(N3CCCc4c(C#CC5(C(F)(F)F)CC5)cccc43)c3c(Cl)c(F)ccc3n12` [Example 37, 6-chloro-7-fluoro-1-methyl-5-[5-[2-[1-(trifluoromethyl)cyclopropyl]ethynyl]-3,4-dihydro-2H-quinolin-1-yl]-[1,2,4]triazolo[4,3-a]quinazoline], the EC50 in test [1] came out at 1.88 nM. The concentration for half-maximal inhibition (IC50) in test [2] is 64.8 nM.
For the compound `Fc1cc(Cl)c2c(c1)c(N1CCCc3c(C#CC4(C(F)(F)F)CC4)cccc31)nc1nncn12` [Example 38, 9-chloro-7-fluoro-5-[5-[2-[1-(trifluoromethyl)cyclopropyl]ethynyl]-3,4-dihydro-2H-quinolin-1-yl]-[1,2,4]triazolo[4,3-a]quinazoline], in test [1], the EC50 is 3.95 nM. Further, the IC50 in test [2] was 126 nM.
